# Source: patent US9815864B2, “Substituted nucleosides, nucleotides and analogs thereof” (Alios BioPharma, Inc., priority 2013, dated 2017)
# Test system: NV genome in HG23 cells
# Assay: Norovirus replicon assay (HG23 cells, NV genome by qRT-PCR)
# Type: cell-based, genogroup 1 norovirus
# Settings: HG23 cells, reduction of NV genome vs mock-medium at 48 h
row,Structure (SMILES),EC50 [µM]
1,C#C[C@]1(F)[C@H](n2cnc3c(OCC)nc(N)nc32)O[C@](F)(COP(=O)(N[C@@H](C)C(=O)OC2CCCCC2)Oc2ccccc2)[C@H]1O (stereo partly drawn) [Compound 148a],< 1

# Same assay, conditions: HG23 cells, reduction of NV genome vs mock-medium at 48 h; read-out: EC50
row,Structure (SMILES),EC50 [µM]
1,CCOc1nc(N)nc2c1ncn2[C@@H]1O[C@](F)(CO[P@@](=O)(N[C@@H](C)C(=O)OC2CCCCC2)Oc2ccccc2)[C@@H](O)[C@@]1(C)F [Compound 141a],1 to 10
2,C#C[C@]1(O)[C@H](n2cnc3c(OCC)nc(N)nc32)O[C@](F)(CO[P@@](=O)(N[C@@H](C)C(=O)OC2CCCCC2)Oc2ccccc2)[C@H]1O [Compound 143a],1 to 10
3,C#C[C@]1(O)[C@H](n2cnc3c(OCC)nc(N)nc32)O[C@](F)(CO[P@](=O)(N[C@@H](C)C(=O)OC2CCCCC2)Oc2ccccc2)[C@H]1O [Compound 142a],1 to 10

# Same assay, conditions: Norovirus, HG23, 48 h
row,Structure (SMILES),EC50 [µM]
1,CCOc1nc(N)nc2c1ncn2[C@@H]1O[C@](CF)(COP(=O)(N[C@@H](C)C(=O)OC2CCCCC2)Oc2ccccc2)[C@@H](O)[C@@]1(C)O (stereo partly drawn) [Compound 153a],< 1
2,CCOc1nc(N)nc2c1ncn2[C@@H]1O[C@](F)(COP(=O)(N[C@@H](C)C(=O)OC2CCCCC2)Oc2ccccc2)[C@@H](O)[C@@]1(C)O (stereo partly drawn) [Compound 128a],1 to 10
3,CCOc1nc(N)nc2c1ncn2[C@@H]1O[C@](F)(COP(=O)(N[C@@H](C)C(=O)OC2CCCCC2)Oc2ccccc2)[C@@H](F)[C@@]1(C)O (stereo partly drawn) [Compound 134a],1 to 10
4,C#C[C@]1(F)[C@H](n2cnc3c(OCC)nc(N)nc32)O[C@](F)(COP(=O)(N[C@@H](C)C(=O)OC2CCCCC2)Oc2ccccc2)[C@H]1O (stereo partly drawn) [Compound 147a],< 1

# Same assay, conditions: Norovirus; HG23 cells, reduction of NV genome vs mock-medium at 48 h; read-out: EC50
row,Structure (SMILES),EC50 [µM]
1,[N-]=[N+]=NC[C@]1(CO)O[C@@H](n2ccc(N)nc2=O)[C@H](F)[C@@H]1O [Compound 113a],1 to 10
2,CCOc1nc(N)nc2c1ncn2[C@@H]1O[C@]2(F)CO[P@](=O)(OC(C)C)O[C@H]2[C@@]1(C)O [Compound 144a],1 to 10
3,C[C@@]1(O)[C@H](O)[C@](CO)(CF)O[C@H]1n1ccc(N)nc1=O [Compound 338a],10 to 100
4,CC(C)OC(=O)OCOP(=O)(OCOC(=O)OC(C)C)OC[C@@]1(CF)O[C@@H](n2ccc(=O)[nH]c2=O)[C@](C)(O)[C@@H]1O [Compound 156a],< 1
5,[N-]=[N+]=N[C@]1(CO)O[C@@H](n2ccc(N)nc2=O)C(F)(F)[C@@H]1O [Compound 380a],1 to 10
6,[N-]=[N+]=N[C@]1(CO)O[C@@H](n2ccc(N)nc2=O)[C@H](O)[C@@H]1O [Compound 381a],10 to 100
7,[N-]=[N+]=N[C@]1(CO)O[C@@H](n2ccc(N)nc2=O)[C@@H](O)[C@@H]1O [Compound 266a],1 to 10
8,C#C[C@@]1(O)[C@H](O)[C@](CO)(CCl)O[C@H]1n1ccc(=O)[nH]c1=O [Compound 344a],10 to 100

# Molecular target: Norovirus polymerase (NoVpol, genotype II) (Lordsdale virus, UniProt P54634)
# Sequence (P54634 1190-1699 limits assumed): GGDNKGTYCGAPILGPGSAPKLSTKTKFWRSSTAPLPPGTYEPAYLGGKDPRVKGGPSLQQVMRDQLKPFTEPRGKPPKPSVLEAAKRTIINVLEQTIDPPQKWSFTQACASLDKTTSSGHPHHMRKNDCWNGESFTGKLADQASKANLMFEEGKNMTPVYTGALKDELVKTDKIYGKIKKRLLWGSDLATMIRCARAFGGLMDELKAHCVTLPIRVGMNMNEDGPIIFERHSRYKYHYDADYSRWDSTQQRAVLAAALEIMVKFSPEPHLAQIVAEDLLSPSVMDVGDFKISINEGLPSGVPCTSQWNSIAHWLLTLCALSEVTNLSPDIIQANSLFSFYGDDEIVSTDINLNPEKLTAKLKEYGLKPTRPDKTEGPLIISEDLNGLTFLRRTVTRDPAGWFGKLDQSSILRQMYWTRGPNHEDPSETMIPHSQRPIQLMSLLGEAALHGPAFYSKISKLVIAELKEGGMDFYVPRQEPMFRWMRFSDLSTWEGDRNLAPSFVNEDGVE
# Assay: biochemical
# Settings: not given
row,Structure (SMILES),IC50 [µM]
1,CC[C@]1(COP(=O)(O)OP(=O)(O)OP(=O)(O)O)O[C@@H](n2ccc(=O)[nH]c2=O)[C@H](F)[C@@H]1O [Compound 37a],1 to 10
2,Nc1ccn([C@@H]2O[C@](CF)(COP(=O)(O)OP(=O)(O)OP(=O)(O)O)[C@@H](O)[C@H]2F)c(=O)n1 [Compound 56c],< 1
3,C[C@]1(O)C(n2ccc(=O)[nH]c2=O)O[C@H](COP(=O)(O)OP(=O)(O)OP(=O)(O)O)[C@H]1O (stereo partly drawn) [Compound 260a],1 to 10

# Same assay, conditions: 50 nM recombinant enzyme, 2.5 hours at 30° C.; read-out: IC50
row,Structure (SMILES),IC50 [µM]
1,C#C[C@]1(O)[C@H](n2cnc3c(=O)[nH]c(N)nc32)O[C@](F)(CO)[C@H]1F [Compound 146a],< 1
2,[N-]=[N+]=N[C@]1(COP(=O)(O)OP(=O)(O)OP(=O)(O)O)O[C@@H](n2ccc(=O)[nH]c2=O)[C@H](F)[C@@H]1O [Compound 267a],< 1
3,Nc1ccn([C@@H]2O[C@@](COP(=O)(O)OP(=O)(O)OP(=O)(O)O)(CC(F)F)[C@@H](O)[C@H]2F)c(=O)n1 [Compound 272a],1 to 10
4,Cc1cn([C@@H]2O[C@](CCl)(COP(=O)(O)OP(=O)(O)OP(=O)(O)O)[C@@H](O)[C@H]2F)c(=O)nc1N [Compound 97d],1 to 10
5,[N-]=[N+]=NC[C@]1(COP(=O)(O)OP(=O)(O)OP(=O)(O)O)O[C@@H](n2cnc3c(N)ncnc32)[C@H](F)[C@@H]1O [Compound 212a],1 to 10
6,C[C@@]1(O)[C@H](O)[C@@](CF)(COP(=O)(O)OP(=O)(O)OP(=O)(O)O)O[C@H]1n1ccc2c(N)ncnc21 [Compound 351a],< 1
7,C[C@@]1(Cl)[C@H](O)[C@@H](COP(=O)(O)OP(=O)(O)OP(=O)(O)O)O[C@H]1n1cnc2c(=O)[nH]c(N)nc21 [Compound 343a],< 1
8,C[C@@]1(O)[C@H](O)[C@@](CF)(COP(=O)(O)OP(=O)(O)OP(=O)(O)O)O[C@H]1n1ccc(N)nc1=O [Compound 354a],< 1
9,C[C@]1(O)[C@H](n2cnc3c(N)ncnc32)O[C@](F)(COP(=O)(O)OP(=O)(O)OP(=O)(O)O)[C@H]1O [Compound 333a],1 to 10
10,C[C@]1(COP(=O)(O)OP(=O)(O)OP(=O)(O)O)O[C@@H](n2cnc3c(=O)[nH]c(N)nc32)[C@H](O)[C@@H]1O [Compound 334a],< 1
11,C[C@@]1(Cl)[C@H](O)[C@@](CF)(COP(=O)(O)OP(=O)(O)OP(=O)(O)O)O[C@H]1n1ccc(=O)[nH]c1=O [Compound 306a],10 to 100
12,CO[C@]1(COP(=O)(O)OP(=O)(O)OP(=O)(O)O)O[C@@H](n2ccc(N)nc2=O)[C@H](F)[C@@H]1O [Compound 36d],1 to 10
13,C=C[C@]1(COP(=O)(O)OP(=O)(O)OP(=O)(O)O)O[C@@H](n2cnc3c(=O)[nH]c(N)nc32)[C@H](F)[C@@H]1O [Compound 34a],< 1
14,C=C[C@]1(COP(=O)(O)OP(=O)(O)OP(=O)(O)O)O[C@@H](n2ccc(=O)[nH]c2=O)C(F)(F)[C@@H]1O [Compound 221a],1 to 10
15,C[C@]1(O)[C@H](n2ccc(=O)[nH]c2=O)O[C@](F)(COP(=O)(O)OP(=O)(O)OP(=O)(O)O)[C@H]1O [Compound 122a],1 to 10
16,C[C@]1(O)[C@H](n2ccc(N)nc2=O)O[C@](C)(COP(=O)(O)OP(=O)(O)OP(=O)(O)O)[C@H]1O [Compound 340a],1 to 10

row,Structure (SMILES),IC50 [µM]
1,C[C@]1(F)[C@H](n2ccc(=O)[nH]c2=O)O[C@](F)(COP(=O)(O)OP(=O)(O)OP(=O)(O)O)[C@H]1O [Compound 242a],10 to 100
2,O=c1[nH]cnc2c1ncn2[C@@H]1O[C@](CCl)(COP(=O)(O)OP(=O)(O)OP(=O)(O)O)[C@@H](O)[C@H]1F [Compound 98b],1 to 10
3,[N-]=[N+]=NC[C@]1(COP(=O)(O)OP(=O)(O)OP(=O)(O)O)O[C@@H](n2ccc(=O)[nH]c2=O)[C@H](F)[C@@H]1O [Compound 114a],< 1
4,Nc1nc2c(ncn2[C@@H]2O[C@](CCl)(COP(=O)(O)OP(=O)(O)OP(=O)(O)O)[C@@H](O)[C@H]2F)c(=O)[nH]1 [Compound 116a],1 to 10
5,Nc1ccn([C@@H]2O[C@](CF)(COP(=O)(O)OP(=O)(O)OP(=O)(O)O)[C@@H](O)C2(F)F)c(=O)n1 [Compound 227a],1 to 10
6,C[C@@]1(Cl)[C@H](O)[C@@H](COP(=O)(O)OP(=O)(O)OP(=O)(O)O)O[C@H]1n1ccc(N)nc1=O [Compound 262a],1 to 10
7,O=c1ccn([C@@H]2O[C@](CF)(COP(=O)(O)OP(=O)(O)OP(=O)(O)O)[C@@H](O)[C@]2(O)CF)c(=O)[nH]1 [Compound 353a],1 to 10
8,O=c1ccn([C@@H]2O[C@](CCl)(COP(=O)(O)OP(=O)(O)OP(=O)(O)O)[C@@H](O)[C@H]2F)c(=O)[nH]1 [Compound 56a],1 to 10
9,[N-]=[N+]=NC[C@]1(COP(=O)(O)OP(=O)(O)OP(=O)(O)O)O[C@@H](n2ccc(N)nc2=O)[C@H](F)[C@@H]1O [Compound 115a],1 to 10
10,[N-]=[N+]=N[C@]1(COP(=O)(O)OP(=O)(O)OP(=O)(O)O)O[C@@H](n2cnc3c(=O)[nH]c(N)nc32)[C@H](O)[C@@H]1O [Compound 268a],< 1
11,C[C@]1(O)[C@H](n2cnc3c(=O)[nH]c(N)nc32)O[C@](F)(COP(=O)(O)OP(=O)(O)OP(=O)(O)O)[C@H]1F [Compound 232a],< 1
12,C=C[C@]1(COP(=O)(O)OP(=O)(O)OP(=O)(O)O)O[C@@H](n2ccc(N)nc2=O)[C@H](F)[C@@H]1O [Compound 36b],1 to 10
13,C[C@]1(O)[C@H](n2ccc(N)nc2=O)O[C@](F)(COP(=O)(O)OP(=O)(O)OP(=O)(O)O)[C@H]1O [Compound 238a],< 1
14,C#C[C@@]1(O)[C@H](O)[C@@H](COP(=O)(O)OP(=O)(O)OP(=O)(O)O)O[C@H]1n1cnc2c(N)ncnc21 [Compound 289a],< 1
15,C[C@]1(F)[C@H](n2cnc3c(=O)[nH]c(N)nc32)O[C@](F)(COP(=O)(O)OP(=O)(O)OP(=O)(O)O)[C@H]1O [Compound 214a],< 1

# Test system: Murine norovirus (MNV-1)
# Assay: Norovirus MNV-1 antiviral assay (CPE reduction, CellTiter-Glo, RAW 264.7 cells)
# Type: cell-based
# Settings: RAW264.7, 72 h; RAW 264.7 cells infected with MNV-1 (MOI of 0.001), 3 days; read-out: EC50
row,Structure (SMILES),EC50 [µM]
1,[N-]=[N+]=NC[C@]1(CO)O[C@@H](n2ccc(N)nc2=O)[C@H](F)[C@@H]1O [Compound 113a],10 to 100
2,CCOc1nc(N)nc2c1ncn2[C@@H]1O[C@]2(F)CO[P@@](=O)(OC(C)C)O[C@H]2[C@@]1(C)O [Compound 145a],10 to 100
3,CCOc1nc(N)nc2c1ncn2[C@@H]1O[C@]2(F)CO[P@](=O)(OC(C)C)O[C@H]2[C@@]1(C)O [Compound 144a],10 to 100
4,C#C[C@]1(O)[C@H](n2cnc3c(=O)[nH]c(N)nc32)O[C@](F)(CO)[C@H]1F [Compound 146a],10 to 100
5,CC(C)OC(=O)OCOP(=O)(OCOC(=O)OC(C)C)OC[C@@]1(CF)O[C@@H](n2ccc(=O)[nH]c2=O)[C@](C)(O)[C@@H]1O [Compound 156a],1 to 10

# Same assay, conditions: RAW 264.7 cells infected with MNV-1 (MOI of 0.001), 3 days; read-out: EC50
row,Structure (SMILES),EC50 [µM]
1,N#C[C@@]1(n2ccc(N)nc2=O)O[C@@](CO)(CF)[C@@H](O)[C@H]1O [Compound 376a],10 to 100
2,CCOc1nc(N)nc2c1ncn2[C@@H]1O[C@](F)(CO[P@@](=O)(N[C@@H](C)C(=O)OC2CCCCC2)Oc2ccccc2)[C@@H](O)[C@@]1(C)F [Compound 141a],1 to 10
